Test results as given in publication doi:10.1101/2021.06.27.450110v1 (bioRxiv, 2021).
Where a SMILES comes first, the peptide text is derived from it. Bridges are numbered along the chain shown (N, C = ends).

Experiments:
red blood cells (RBCs) = assay: Red blood cell hemolysis assay; format: cell-based, human; conditions: for fold less hemolytic than native tachyplesin I and polyphemusin I: from RBC CC50; for lysis of RBCs: incubation with 128 µM peptide, 37 °C, 1 h
BMMs = assay: Flow cytometry to measure peptide internalization; format: cell-based, mouse; conditions: Alexa Fluor 488-labelled peptides, 1 h
BMMs infected with EC958 = assay: Microscopy to determine location of peptides inside infected BMMs; format: cell-based, mouse; conditions: 8 µM A488-labelled peptide, 1 h, fixed cells, confocal microscopy
EC958ΔzntA = assay: Co-treatment of planktonic bacteria with peptides and zinc; format: cell-based, Escherichia coli; conditions: 0.1 mM zinc
EC958 WT = assay: as above; format: cell-based, Escherichia coli; conditions: 0.1 mM zinc
[1] = system: Burkholderia pseudomallei strains MSHR1364, MSHR2154 and MSHR10517; conditions: 24 h

SMILES | fold less hemolytic than native tachyplesin I and polyphemusin I (red blood cells (RBCs)) | lysis of RBCs (red blood cells (RBCs)) [%] | concentration required to internalize 50% of cells compared to tachyplesin I (BMMs) | Antimicrobial activity: MIC, Burkholderia pseudomallei [1] [µM] | also measured
CC(C)[C@@H]1NC(=O)[C@H](CCCNC(=N)N)NC(=O)[C@H](Cc2ccccc2)NC(=O)[C@@H](NC(=O)[C@H](Cc2c[nH]c3ccccc23)NC(=O)[C@@H](N)CCCCN)CSSC[C@@H](C(=O)N[C@@H](CCCNC(=N)N)C(N)=O)NC(=O)[C@H](CCCNC(=N)N)NC(=O)[C@H](CCCNC(=N)N)NC(=O)[C@H](Cc2ccc(O)cc2)NC(=O)[C@@H]2CSSC[C@H](NC1=O)C(=O)N[C@@H](Cc1ccc(O)cc1)C(=O)N[C@@H](CCCNC(=N)N)C(=O)NCC(=O)N[C@@H](C)C(=O)N2 [[I11A]tachyplesin I] (H-KWCFRVCYRGACYRRCR-NH2; disulfide 3-16, 7-12) | at least 3 fold | < 50 | > ten-fold lower concentrations |  | intracellular localization in BMMs infected with EC958 (BMMs infected with EC958): locates mainly within vesicles
O=S(=O)([O-])[O-].[Zn+2] [zinc, zinc sulfate] |  |  |  |  | growth of EC958ΔzntA with zinc alone (EC958ΔzntA): does not significantly inhibit; growth of EC958 WT with zinc alone (EC958 WT): does not significantly inhibit
CC(C)C[C@H](NC(=O)[C@H](CCCNC(=N)N)NC(=O)CNC(=O)CNC(=O)[C@@H](N)CCCNC(=N)N)C(=O)N[C@H]1CSSC[C@@H](C(=O)N[C@H](C(=O)NCC(=O)N[C@@H](CCCNC(=N)N)C(N)=O)C(C)C)NC(=O)[C@H](C(C)C)NC(=O)[C@@H]2CSSC[C@H](NC(=O)[C@H](Cc3ccc(O)cc3)NC1=O)C(=O)N[C@@H](CCCNC(=N)N)C(=O)N[C@@H](CCCNC(=N)N)C(=O)N[C@@H](CCCNC(=N)N)C(=O)N[C@@H](Cc1ccccc1)C(=O)N2 [Protegrin-I] |  |  |  | > 64 | 
CC(C)[C@@H]1NC(=O)[C@H](CCCNC(=N)N)NC(=O)[C@H](Cc2ccccc2)NC(=O)[C@@H](NC(=O)[C@H](Cc2c[nH]c3ccccc23)NC(=O)[C@H](CCCNC(=N)N)NC(=O)[C@@H](N)CCCNC(=N)N)CSSC[C@@H](C(=O)N[C@@H](CCCNC(=N)N)C(N)=O)NC(=O)[C@H](CCCCN)NC(=O)[C@H](CCCNC(=N)N)NC(=O)[C@H](Cc2ccc(O)cc2)NC(=O)[C@@H]2CSSC[C@H](NC1=O)C(=O)N[C@@H](Cc1ccc(O)cc1)C(=O)N[C@@H](CCCNC(=N)N)C(=O)NCC(=O)N[C@@H](Cc1ccccc1)C(=O)N2 [Polyphemusin-I] (H-RRWCFRVCYRGFCYRKCR-NH2; disulfide 4-17, 8-13) |  |  |  | > 64 | 
CC[C@H](C)[C@@H]1NC(=O)CNC(=O)[C@H](CCCNC(=N)N)NC(=O)[C@H](Cc2ccc(O)cc2)NC(=O)[C@@H]2CSSC[C@H](NC1=O)C(=O)N[C@@H](Cc1ccc(O)cc1)C(=O)N[C@@H](CCCNC(=N)N)C(=O)N[C@@H](CCCNC(=N)N)C(=O)N[C@H](C(=O)N[C@@H](CCCNC(=N)N)C(N)=O)CSSC[C@H](NC(=O)[C@H](Cc1c[nH]c3ccccc13)NC(=O)[C@@H](N)CCCCN)C(=O)N[C@@H](Cc1ccccc1)C(=O)N[C@@H](CCCNC(=N)N)C(=O)N[C@@H](C(C)C)C(=O)N2 [Tachyplesin I] (H-KWCFRVCYRGICYRRCR-NH2; disulfide 3-16, 7-12) |  |  |  | > 64 | 
CC(C)[C@@H]1NC(=O)[C@H](CCCNC(=N)N)NC(=O)[C@H](Cc2ccccc2)NC(=O)[C@@H](NC(=O)[C@H](Cc2c[nH]c3ccccc23)NC(=O)[C@@H](N)CCCCN)CSSC[C@@H](C(=O)N[C@@H](CCCNC(=N)N)C(N)=O)NC(=O)[C@H](CCCNC(=N)N)NC(=O)[C@H](CCCNC(=N)N)NC(=O)[C@H](Cc2ccc(O)cc2)NC(=O)[C@@H]2CSSC[C@H](NC1=O)C(=O)N[C@@H](Cc1ccc(O)cc1)C(=O)N[C@@H](CCCNC(=N)N)C(=O)NCC(=O)N[C@@H](CO)C(=O)N2 [[I11S]tachyplesin I] (H-KWCFRVCYRGSCYRRCR-NH2; disulfide 3-16, 7-12) | at least 3 fold | < 50 | > ten-fold lower concentrations |  | 
